Measured values taken from paper PMC6979384, “Characterization of the plant homeodomain (PHD) reader family for their histone tail interactions” (Epigenetics & Chromatin, 2020).

Legend:
Test in all cases: Histone peptide microarray
Format in all cases: binding, human
Settings in all cases: total n = 4
MORC3 (CW) = system: MORC3 (CW)
In short: (§1)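 Readout is array binding signal, reported as the mean and standard deviation over four replicates. Each purified GST-fused PHD domain was incubated at 0.5 μM with a library of 293 modified histone peptides.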

KDM5A (3) = system: KDM5A (3)
In short: as §1

PHF8 = system: PHF8
In short: as §1

ING3 = system: ING3
In short: as §1

CHD5 (PCC) = system: CHD5 (PCC)
In short: as §1

DPF2 (PPC2W2) = system: DPF2 (PPC2W2)
In short: as §1

CHD4 (PPCC) = system: CHD4 (PPCC)
In short: as §1

TAF3 = system: TAF3
In short: as §1

PHF21A = system: PHF21A
In short: as §1

ING1 = system: ING1
In short: as §1

KDM7A = system: KDM7A
In short: as §1

PHF2 = system: PHF2
In short: as §1

MLL5 = system: MLL5
In short: as §1

PHRF1 (RP) = system: PHRF1 (RP)
In short: as §1

DIDO1 = system: DIDO1
In short: as §1

KDM4C (TTP) = system: KDM4C (TTP)
In short: as §1

TRIM66 (PB) = system: TRIM66 (PB)
In short: as §1

KDM5A (1) = system: KDM5A (1)
In short: as §1

AIRE (PP) = system: AIRE (PP)
In short: as §1

PHF23 = system: PHF23
In short: as §1

PHF13 = system: PHF13
In short: as §1

ING2 = system: ING2
In short: as §1

BPTF (PB) = system: BPTF (PB)
In short: as §1

ING4 = system: ING4
In short: as §1

CHD5 (PPCC) = system: CHD5 (PPCC)
In short: as §1

SP140L = system: SP140L
In short: as §1

KDM5B (1) = system: KDM5B (1)
In short: as §1

KDM5B (3) = system: KDM5B (3)
In short: as §1

RAG2 = system: RAG2
In short: as §1

ING5 = system: ING5
In short: as §1

BAZ2B = system: BAZ2B
In short: as §1

[1] = sheet "Array Heatmap", GST-tagged reader, histone peptide array

H3K4me3 + K9ac + S10p: H3 1-20
Array Heatmap signal, MORC3 (CW) (MORC3 (CW); [1]): 0.5046
Array Heatmap signal, KDM5A (3) (KDM5A (3); [1]): 0.592
Array Heatmap signal, PHF8 (PHF8; [1]): 0.4377
Array Heatmap signal, ING3 (ING3; [1]): 0.5024
Array Heatmap signal, CHD5 (PCC) (CHD5 (PCC); [1]): 0.7803
Array Heatmap signal, DPF2 (PPC2W2) (DPF2 (PPC2W2); [1]): 0.6858
Array Heatmap signal, CHD4 (PPCC) (CHD4 (PPCC); [1]): 0.6064
Array Heatmap signal, TAF3 (TAF3; [1]): 0.3627
Array Heatmap signal, PHF21A (PHF21A; [1]): 0.4669
Array Heatmap signal, ING1 (ING1; [1]): 0.6226
Array Heatmap signal, KDM7A (KDM7A; [1]): 0.3478
Array Heatmap signal, PHF2 (PHF2; [1]): 0.6992
Array Heatmap signal, MLL5 (MLL5; [1]): 0.6372
Array Heatmap signal, PHRF1 (RP) (PHRF1 (RP); [1]): 0.5333
Array Heatmap signal, DIDO1 (DIDO1; [1]): 0.8464
Array Heatmap signal, KDM4C (TTP) (KDM4C (TTP); [1]): 0.4439
Array Heatmap signal, TRIM66 (PB) (TRIM66 (PB); [1]): 0.5913
Array Heatmap signal, KDM5A (1) (KDM5A (1); [1]): 0.422
Array Heatmap signal, AIRE (PP) (AIRE (PP); [1]): 0.4053
Array Heatmap signal, PHF23 (PHF23; [1]): 0.5778
Array Heatmap signal, PHF13 (PHF13; [1]): 0.601
Array Heatmap signal, ING2 (ING2; [1]): 0.7056
Array Heatmap signal, BPTF (PB) (BPTF (PB); [1]): 0.3713
Array Heatmap signal, ING4 (ING4; [1]): 0.4594
Array Heatmap signal, CHD5 (PPCC) (CHD5 (PPCC); [1]): 0.5185
Array Heatmap signal, SP140L (SP140L; [1]): 0.3742
Array Heatmap signal, KDM5B (1) (KDM5B (1); [1]): 0.5673
Array Heatmap signal, KDM5B (3) (KDM5B (3); [1]): 0.4789
Array Heatmap signal, RAG2 (RAG2; [1]): 0.3673
Array Heatmap signal, ING5 (ING5; [1]): 0.3414
Array Heatmap signal, BAZ2B (BAZ2B; [1]): 0.4222

H3K4me3 + K9ac: H3 1-20
Array Heatmap signal (histone peptide microarray) (MORC3 (CW); GST-tagged MORC3 (CW = CW-type Zn-finger), sheet Array Heatmap, each array performed twice): 0.7776
Array Heatmap signal (histone peptide microarray) (KDM5A (3); GST-tagged KDM5A (3), sheet Array Heatmap, each array performed twice): 0.93
Array Heatmap signal (histone peptide microarray) (PHF8; GST-tagged PHF8, sheet Array Heatmap, each array performed twice): 0.6077
Array Heatmap signal (histone peptide microarray) (ING3; GST-tagged ING3, sheet Array Heatmap, each array performed twice): 0.8165
Array Heatmap signal (histone peptide microarray) (CHD5 (PCC); GST-tagged CHD5 (PCC = PHD + Dual Chromodomain), sheet Array Heatmap, each array performed twice): 0.7875
Array Heatmap signal (histone peptide microarray) (DPF2 (PPC2W2); GST-tagged DPF2 (PPC2W2 = Dual PHD + C2W2-type Zn-finger), sheet Array Heatmap, each array performed twice): 0.7108
Array Heatmap signal (histone peptide microarray) (CHD4 (PPCC); GST-tagged CHD4 (PPCC = Dual PHD + Dual Chromodomain), sheet Array Heatmap, each array performed twice): 0.6185
Array Heatmap signal (histone peptide microarray) (TAF3; GST-tagged TAF3, sheet Array Heatmap, each array performed twice): 0.7366
Array Heatmap signal (histone peptide microarray) (PHF21A; GST-tagged PHF21A, sheet Array Heatmap, each array performed twice): 0.4382
Array Heatmap signal (histone peptide microarray) (ING1; GST-tagged ING1, sheet Array Heatmap, each array performed twice): 0.8182
Array Heatmap signal (histone peptide microarray) (KDM7A; GST-tagged KDM7A, sheet Array Heatmap, each array performed twice): 0.4556
Array Heatmap signal (histone peptide microarray) (PHF2; GST-tagged PHF2, sheet Array Heatmap, each array performed twice): 0.9106
Array Heatmap signal (histone peptide microarray) (MLL5; GST-tagged MLL5, sheet Array Heatmap, each array performed twice): 0.8313
Array Heatmap signal (histone peptide microarray) (PHRF1 (RP); GST-tagged PHRF1 (RP), sheet Array Heatmap, each array performed twice): 0.6133
Array Heatmap signal (histone peptide microarray) (DIDO1; GST-tagged DIDO1, sheet Array Heatmap, each array performed twice): 0.9386
Array Heatmap signal (histone peptide microarray) (KDM4C (TTP); GST-tagged KDM4C (TTP = Tandem Tudor domain + PHD), sheet Array Heatmap, each array performed twice): 0.5829
Array Heatmap signal (histone peptide microarray) (TRIM66 (PB); GST-tagged TRIM66 (PB = PHD + Bromodomain), sheet Array Heatmap, each array performed twice): 0.6603
Array Heatmap signal (histone peptide microarray) (KDM5A (1); GST-tagged KDM5A (1), sheet Array Heatmap, each array performed twice): 0.468
Array Heatmap signal (histone peptide microarray) (AIRE (PP); GST-tagged AIRE (PP), sheet Array Heatmap, each array performed twice): 0.4068
Array Heatmap signal (histone peptide microarray) (PHF23; GST-tagged PHF23, sheet Array Heatmap, each array performed twice): 0.8466
Array Heatmap signal (histone peptide microarray) (PHF13; GST-tagged PHF13, sheet Array Heatmap, each array performed twice): 0.7477
Array Heatmap signal (histone peptide microarray) (ING2; GST-tagged ING2, sheet Array Heatmap, each array performed twice): 0.8738
Array Heatmap signal (histone peptide microarray) (BPTF (PB); GST-tagged BPTF (PB = PHD + Bromodomain), sheet Array Heatmap, each array performed twice): 0.6012
Array Heatmap signal (histone peptide microarray) (ING4; GST-tagged ING4, sheet Array Heatmap, each array performed twice): 0.6305
Array Heatmap signal (histone peptide microarray) (CHD5 (PPCC); GST-tagged CHD5 (PPCC = Dual PHD + Dual Chromodomain), sheet Array Heatmap, each array performed twice): 0.5612
Array Heatmap signal (histone peptide microarray) (SP140L; GST-tagged SP140L, sheet Array Heatmap, each array performed twice): 0.3446
Array Heatmap signal (histone peptide microarray) (KDM5B (1); GST-tagged KDM5B (1), sheet Array Heatmap, each array performed twice): 0.7027
Array Heatmap signal (histone peptide microarray) (KDM5B (3); GST-tagged KDM5B (3), sheet Array Heatmap, each array performed twice): 0.7448
Array Heatmap signal (histone peptide microarray) (RAG2; GST-tagged RAG2, sheet Array Heatmap, each array performed twice): 0.8735
Array Heatmap signal (histone peptide microarray) (ING5; GST-tagged ING5, sheet Array Heatmap, each array performed twice): 0.4241
Array Heatmap signal (histone peptide microarray) (BAZ2B; GST-tagged BAZ2B, sheet Array Heatmap, each array performed twice): 0.4768
